Data from PMC7946891, “Versatility in acyltransferase activity completes chicoric acid biosynthesis in purple coneflower” (Nature Communications, 2021).

Target: T1, EpHCT (Echinacea purpurea, UniProt A0A890VVY1)
T1 construct: full-length CDS, N-terminal 6xHis (pDEST17), E. coli BL21(DE3), Ni-NTA purified
Experiment: in vitro enzyme assay, LC-HRMS product detection
Type: biochemical

T1 sequence (A0A890VVY1 1-434): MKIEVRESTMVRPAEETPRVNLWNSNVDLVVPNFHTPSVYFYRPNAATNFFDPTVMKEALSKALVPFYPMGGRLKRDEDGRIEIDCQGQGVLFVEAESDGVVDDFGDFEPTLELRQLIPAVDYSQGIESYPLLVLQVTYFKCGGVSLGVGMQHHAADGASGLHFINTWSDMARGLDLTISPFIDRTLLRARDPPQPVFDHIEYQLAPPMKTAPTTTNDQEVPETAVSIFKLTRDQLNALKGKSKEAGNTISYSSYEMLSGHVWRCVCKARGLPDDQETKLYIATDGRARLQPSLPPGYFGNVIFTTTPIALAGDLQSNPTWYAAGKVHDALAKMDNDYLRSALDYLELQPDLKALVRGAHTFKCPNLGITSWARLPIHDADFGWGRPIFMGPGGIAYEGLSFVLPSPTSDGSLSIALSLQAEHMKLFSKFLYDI

CC(C)(COP(=O)(O)OP(=O)(O)OC[C@H]1O[C@@H](n2cnc3c(N)ncnc32)[C@H](O)[C@@H]1OP(=O)(O)O)[C@@H](O)C(=O)NCCC(=O)NCCSC(=O)/C=C/c1ccc(O)cc1 [p-coumaroyl CoA] was tested, and the “in vitro enzyme assay, LC-HRMS product detection” value (shikimic acid as acyl acceptor) was “production of p-coumaroyl shikimic acid using p-coumaroyl CoA and shikimic acid as substrates”.
For O=C(O)C1=C[C@@H](O)[C@@H](O)[C@H](O)C1 [shikimic acid], the “in vitro enzyme assay, LC-HRMS product detection” value (p-coumaroyl CoA or caffeoyl CoA as acyl donor) was “production of p-coumaroyl shikimic acid using p-coumaroyl CoA and shikimic acid as substrates”.
